Test results reported in patent publication US20230151434A1, “REAWAKENING OF DORMANT TUMOR CELLS BY MODIFIED LIPIDS DERIVED FROM STRESS ACTIVATED NEUTROPHILS” (The Wistar Institute of Anatomy and Biology, priority 2020, published 2023).
Like-named read-outs stand apart in the source and are kept apart here.

Tests used:
[1] = test system: LL2, A549 and OVCAR3 cells; test: Cisplatin-induced tumor cell dormancy; type: cell-based, mouse; human; conditions: LL2 2.5 μM, A549 4 μM, OVCAR3 0.5 μM, 72 hours
Experimental: The KPr cell line (16) was maintained in RPMI 1640 medium (Corning) and 10% FBS (Gibco). Treatment of KPr cells with 250 nM 4-hydroxytamoxifen (4-OHT, Sigma-Aldrich) induced p53 expression. p53-induced cells (KPr^p53) were stained with CellTrace dye for 20 min at 37° C. according to the manufacturer's instructions (Life Technologies) and seeded at 8500 cells/cm^2 in culture in a T175 tissue culture-treated flask (Gibco). After 7 days, cells were detached and sorted based on the CellTrace dye intensity as proliferating (KPr^p53P, with lower CellTrace) and arrested cells (KPr^p53A, with higher-intensity CellTrace; see FIG. 1A for representative image). LL2 cells were seeded at 1000 cells/cm2 and treated for 3 days with 2.5 μM cisplatin (Selleckchem). After that, cells were stained with CellTrace and sorted as described above. OVCAR3 cell senescence was induced by treating 5×10^4 cells/cm2 with 0.5 μM cisplatin for 72 hours. After that time, cells were stained with CellTrace and sorted. A549 senescence was induced by 72-hour treatment with 4 μM cisplatin and cells were sorted after staining with CellTrace. Time points for sorting were chosen as the best to observe separation between arrested and proliferating cells. Cells were sorted on Astrios (Beckman Coulter) or Melody (Becton Dickinson) fluorescence-activated cell sorters. […]

KPr^p53A cells = test: In vitro co-culture of dormant tumor cells with PMN (count of GFP+ cells); type: cell-based, mouse; conditions: for reactivation/proliferation of KPr^p53A cells cultured with PMN plus supplement: supplement added with PMN, LPS 0.5 to 2 μg/ml
Experimental: (§1) The KPr cell line (16) was maintained in RPMI 1640 medium (Corning) and 10% FBS (Gibco). Treatment of KPr cells with 250 nM 4-hydroxytamoxifen (4-OHT, Sigma-Aldrich) induced p53 expression. p53-induced cells (KPr^p53) were stained with CellTrace dye for 20 min at 37° C. according to the manufacturer's instructions (Life Technologies) and seeded at 8500 cells/cm^2 in culture in a T175 tissue culture-treated flask (Gibco). After 7 days, cells were detached and sorted based on the CellTrace dye intensity as proliferating (KPr^p53P, with lower CellTrace) and arrested cells (KPr^p53A, with higher-intensity CellTrace; see FIG. 1A for representative image). LL2 cells were seeded at 1000 cells/cm2 and treated for 3 days with 2.5 μM cisplatin (Selleckchem). After that, cells were stained with CellTrace and sorted as described above. OVCAR3 cell senescence was induced by treating 5×10^4 cells/cm2 with 0.5 μM cisplatin for 72 hours. After that time, cells were stained with CellTrace and sorted. A549 senescence was induced by 72-hour treatment with 4 μM cisplatin and cells were sorted after staining with CellTrace. Time points for sorting were chosen as the best to observe separation between arrested and proliferating cells. Cells were sorted on Astrios (Beckman Coulter) or Melody (Becton Dickinson) fluorescence-activated cell sorters.
(§2) Arrested tumor cells were plated at 100 cells/cm^2 in a 48-well tissue culture-treated plate (Costar) for coculture experiments. After 24 hours, PMN-MDSC or PMN were added at indicated ratios. Cocultures were maintained for 48 hours in RPMI 1640+10% FBS in the presence of mouse recombinant GM-CSF (10 ng/ml; Rocky Hill) to ensure neutrophil viability. All control conditions were in the presence of media with GM-CSF. All indicated supplements (NE, S100A8/A9, BGJ398, ICI 118-551, IL-2, MPO inhibitor, LPS, lipids, PMA, and thapsigargin 1 μM) were added to culture at the same time as PMN and maintained for 48 hours. After that, media were removed and replaced by fresh media without GM-CSF. After 1 week, GFP^+ cells in wells were counted via an inverted microscope. When lipid extracts were used, lipids were added to dormant cells in culture at 1 to 0.05 or 0.01 nmol as indicated in each experiment.

PMN [2] = test: PMN viability (proportion of live PMN); type: cell-based, mouse
Experimental: FIG. 2A-FIG. 2K show neutrophil-mediated reactivation of dormant cells is regulated by stress-induced S100A8/A9. (FIG. 2A) Fold increase in the number of KPr^p53A cells cultured in the presence of PMN and S100A8/A9 or indicated cytokines relative to KPr^p53A cells cultured with PMN. Three independent experiments with 16 replicates were performed. Mean±SEM of one experiment is shown. (FIG. 2B) Fold increase in the number of KPr^p53A cells cultured in the presence of PMN and LPS relative to KPr^p53A cells cultured with PMN or alone. Means±SEM of three independent experiments with 16 replicates each are shown. (FIG. 2C) Fold increase in the number of KPr^p53A cells cultured in the presence of S100A8/A9 alone, PMN and S100A8/A9, or PMN-MDSC relative to KPr^p53A cultured alone. Means±SEM of 10 independent experiments with 16 replicates each are shown. (FIG. 2D) S100A8/A9 protein produced by PMN after treatment with indicated hormones or LPS was measured by ELISA. PMN-MDSC were isolated from spleens of Lewis lung carcinoma tumor-bearing mice. Means±SEM and results of each independent experiment with three replicates are shown. (FIG. 2E) S100A8/A9 protein secreted in vitro from PMN and PMN treated with NE with or without ICI-118; […] as measured by ELISA. Means±SEM and results of independent experiment with three replicates are shown. (FIG. 2F) Flow cytometry staining of ADRB2 receptor (dark gray) on PMN isolated from mouse spleen. Isotype control, light gray. Representative histogram of three experiments is shown. (FIG. 2G) Fold increase in the number of KPr^p53A cells cultured with PMN alone, NE alone, PMN and NE together, and PMN and NE plus ICI-118; 553 relative to KPr^p53A cells cultured alone (Ctrl). Ten independent experiments with 16 replicates for each experiment were performed. Means±SEM in a representative experiment are shown. (FIG. 2H) Number of KPr^p53A cells cultured in the presence of PMN from S100a9KO mice alone or together with NE relative to KPr^p53A cells cultured alone (ctrl). Means±SEM are reported for 16 replicates. (FIG. 2I) Percentage of live PMN after overnight incubation with NE, S100A8/A9, or LPS. Each dot represents the average of three experimental replicates of one single experiment. Means±SEM are shown for each group. (FIG. 2J) Fold increase in number of LL2^CisA cells cultured with PMN alone or together with S100A8/A9 or NE relative to LL2^CisA cultured alone (Ctrl). Means±SEM of three independent experiments with 16 replicates each are shown. […] In all panels, P values were calculated using ANOVA test with correction for multiple comparisons.
FIG. 11A-FIG. 11G show the mechanism of dormant tumor cell reactivation. […] P values were calculated by ANOVA test with correction for multiple comparisons. […]

PMN [3] = test: S100A8/A9 release by PMN measured by ELISA; type: cell-based, mouse; conditions: PMN treated with stress hormones or LPS
Experimental: PMN or PMN-MDSC were isolated from spleen of tumor-free mice or LLC tumor-bearing mice, respectively. A total of 5×10^5 LLC cells were injected into the right flank of mice, and spleens were harvested when tumors reached 200 mm^2. Spleens were mechanically dissociated. Red blood cells were lysed with ACK buffer cells. Splenocytes were stained with mouse biotin-conjugated Ly6G antibody (Miltenyi Biotec) followed by biotin microbeads. Ly6G+ cells were purified by magnetic separation with MACS column for magnetic cell isolation, according to the manufacturer's instructions (Miltenyi Biotec).
One hundred microliters of mouse peripheral blood was collected from facial vein. NE was measured by a mouse NE ELISA Kit (Novus Biologicals). S100A8/A9 was measured by Mouse S100A8/S100A9 Heterodimer DuoSet ELISA (R&D Systems). S100A8/A9 concentrations in human serum samples were determined by using a double-sandwich ELISA system as previously described (64), which is different from commercial ELISA kits. Human NE was measured using an ELISA kit (Abnova).

[4] = test system: LL2^cisA and AT-3^DoxA cells; test: In vitro co-culture of chemotherapy-arrested mouse tumor cells with PMN; type: cell-based
Experimental: as §1, §2

[5] = test system: A549^cisA and OVCAR3^cisA cells; test: In vitro co-culture of chemotherapy-arrested human tumor cells with human PMN; type: cell-based
Experimental: as §1, §2

[6] = test system: KPr, KPr^p53P and KPr^p53A^react cells; test: Cell proliferation (luciferase activity); type: cell-based, mouse; conditions: 5 or 10 μM
Experimental: Two thousand cells per well were seeded in 96-well clear bottom plate in triplicate (Lonza). Sixteen hours after seeding, NE (Sigma-Aldrich) at 0.5 to 5 μM final concentration or BGJ398 at 0.75 μM final concentration (Selleckchem) was added to culture. To test the effect of BGJ398t on KPr^p53A^React cells, escalating doses ranging from 0 to 10 μM final concentrations were used. To detect luciferase activity (proportional to number of cells in culture), Luciferin (PerkinElmer) was added 1:200 from stock according to the manufacturer's instructions and luminescence was measured with a Victor spectrophotometer (PerkinElmer).

LL2^cisA cells = test: In vivo stress induction, C57BL/6 mice injected with LL2^cisA cells; parameters: species or system mouse; conditions: 30 mg/kg, 3 weeks of stress
Excerpt: A total of 2.5×10^4 KPr^p53A cells were intravenously injected to NOD/SCID mice. Beginning 3 weeks after injection, mice were imaged weekly. Luciferin (PerkinElmer) was intraperitoneally injected in mice before imaging according to the manufacturer's instruction. Mice were imaged with IVIS Spectrum In Vivo Imaging System (IVIS, PerkinElmer) to detect luminescent signal coming from growing cancer cells. Mice were put under anesthesia in the induction chamber with isoflurane vaporizer set to 2.5%, at a flow rate of ˜1.5 liters/min. Mice were then transferred in the IVIS imaging stage nose cone inside the IVIS manifold (IVIS manifold nose cones flow set to ˜0.25 LPM). Animals were monitored by video during imaging. Once the images of luciferase/luciferin activity were acquired, the anesthesia was turned off and the animals were returned to their cages. […] Analysis and quantification were performed with IVIS imaging system Living Image Software 4.7.4 (PerkinElmer). […] When signal was detected, mice were sacrificed, and bioluminescent images of the harvested lung were taken. […] If no bioluminescence was detected in lungs after 80 days from last PMN injection, experiments were terminated, and lung tissue were collected. […] Bioluminescence was not detected in any LL2^CisA-injected mice at 3 weeks after injection. Mice were treated with PMN or PMN-MDSC and analyzed as described above. […]

With `N.N.[Cl][Pt][Cl]` [cisplatin] as the compound, how does the “induction of proliferation arrest / senescence-like phenotype in tumor cells” value [1] read?
Its value is “caused a senescence-like phenotype in tumor cells in vitro”.

What about the “induction of proliferation arrest / senescence-like phenotype in tumor cells” value ([1]; listed as Cisplatin) of the same compound?
Its value is “generated proliferation-arrested cells”.

With Lipopolysaccharide [LPS] as the compound, how does the “reactivation/proliferation of KPr^p53A cells cultured with PMN plus supplement” value (KPr^p53A cells) read?
The value was “did not affect the ability of PMN to reactivate KPr^p53A cells”.

And the PMN viability (PMN [2]; overnight incubation)?
The PMN viability was “markedly reduced it”.

What does the source list for `NC[C@H](O)c1ccc(O)c(O)c1` [NE, norepinephrine]?
S100A8/A9 release by PMN (PMN [3]): caused rapid release of S100A8/A9 proteins; reactivation/proliferation of KPr^p53A cells, supplement alone (KPr^p53A cells; absence of PMN): did not affect the proliferation of KPr^p53A cells; reactivation/proliferation of KPr^p53A cells cultured with PMN plus supplement (KPr^p53A cells): caused proliferation of tumor cells; proliferation of arrested mouse tumor cells cultured with mouse PMN plus supplement ([4]; LL2^cisA, AT-3^DoxA): reactivated dormant mouse and human tumor cells; reactivation of arrested human tumor cells cultured with human PMN plus supplement ([5]; A549^cisA, OVCAR3^cisA): reactivated dormant mouse and human tumor cells; PMN viability (PMN [2]): did not affect PMN viability

What does the source list for `CCN1CCN(c2ccc(Nc3cc(N(C)C(=O)Nc4c(Cl)c(OC)cc(OC)c4Cl)ncn3)cc2)CC1` [BGJ398, infigratinib]?
reactivation of KPr^p53A cells by PMN treated with S100A8/A9 or NE, effect of FGFR blockade (KPr^p53A cells; KPr^p53A): abrogated their reactivation by PMN treated with S100A8/A9 or NE; reactivation of LLC^cisA cells by PMN treated with S100A8/A9 or NE, effect of FGFR blockade ([4]; LLC^cisA): abrogated their reactivation by PMN treated with S100A8/A9 or NE; reactivation of A549^cisA cells by PMN treated with S100A8/A9 or NE, effect of FGFR blockade ([5]; A549^cisA): abrogated their reactivation by PMN treated with S100A8/A9 or NE; reactivation of OVCAR3^cisA cells by PMN treated with S100A8/A9 or NE, effect of FGFR blockade ([5]; OVCAR3^cisA): abrogated their reactivation by PMN treated with S100A8/A9 or NE; proliferation of KPr^p53A^react cells [6]: abrogated cell proliferation; proliferation of KPr^p53P cells [6]: did not affect proliferation of tumor cells; proliferation of parental KPr cells [6]: did not affect proliferation of tumor cells; mice with lung tumor lesions despite exposure to stress (LL2^cisA cells): 0 of 4
